Test results taken from patent US8354436B2 (4SC Discovery GmbH, priority 2011, dated 2013).
Like-named read-outs stand apart in the source and are kept apart here.

What was measured:
IL-17FF = IL-17FF production by PHA-stimulated human PBMC (human IL-17F ELI-Pair); format: cell-based; conditions: 48 hours
Experimental: (§1) Analysis of Proliferation of and Cytokine Production by Human PBMC Stimulated with PHA
(§2) Peripheral blood mononuclear cells (PBMC) from healthy human donors were purified using Accuspin™ System-Histopaque-1077 (Sigma) according to the protocol recommended by the manufacturer. Purified PBMC were then washed twice with phosphate-buffered saline (PBS) and resuspended in RPMI1640 culture medium supplemented with 10% dialyzed heat inactivated fetal calf serum, 1.5 mM L-glutamine, 100 U penicillin/ml, and […] (all from PAN Biotech, Aidenbach, Germany). For stimulation, PBMC were seeded at 1×10^5 cells/well, activated with 2 μg/ml phytohaemagglutinin (PHA, Sigma) and incubated with the test compounds for 48 hours. IL-17A, IL-17F and INF-γ were then determined in the culture supernatant using a Luminex BioPlex system, following the manufacturer's instructions (BioRad, Munich, Germany). For screening, compounds were used at 10, 1, 0.1 and 0.01 μM. To determine the IC50, compounds were titrated semilogarithmically.
(§3) Cytokines were determined in the aforementioned culture supernatant using the following methods: IL-17AA/AF was measured using the Luminex BioPlex system (BioRad, Munich, Germany); IL-17AA using the human homodimer IL-17A ELISA Ready Set Go Kit from eBioscience (Frankfurt, Germany); IL-17FF using the human IL-17F ELI-Pair from Hölzel DiagnosticaGmBH (Köln, Germany); and IFN-γ using the OptEIA human IFN-g ELISA from BD Bioscience (Heidelberg, Germany), all following the manufacturer's instructions.

IFN-γ = IFN-γ production by PHA-stimulated human PBMC (OptEIA human IFN-g ELISA); format: cell-based; conditions: 48 hours
Experimental: as §1, §2, §3

[1] = PHA-stimulated human PBMC, column B, read-out: IC50 (IL-17FF)
[2] = PHA-stimulated human PBMC, column C, read-out: IC50 (IFNγ)
[3] = human PBMC, 2 μg/ml PHA, read-out: B: IC50 (IL-17FF)
[4] = human PBMC, 2 μg/ml PHA, read-out: C: IC50 (IFNγ)

Compound	IC50 (IL-17FF; [1]) [nM]	IC50 (IFN-γ; [2]) [nM]	IC50 (IL-17FF; [3]) [nM]	IC50 (IFN-γ; [4]) [nM]
CON(C)C(=O)c1c(-c2c(F)cccc2Cl)noc1-c1cnn(-c2cccc(NC(C)=O)c2)c1C(F)(F)F [IB-87, 5-(1-(3-acetamidophenyl)-5-(trifluoromethyl)-1H-pyrazol-4-yl)-3-(2-chloro-6-fluorophenyl)-N-methoxy-N-methylisoxazole-4-carboxamide]	1000 to 10000	1000 to 10000	–	–
COC(=O)c1c(-c2c(F)cccc2Cl)noc1-c1cnn(-c2ccc(S(N)(=O)=O)cc2)c1C(F)(F)F [Example I-86, methyl 3-(2-chloro-6-fluorophenyl)-5-(1-(4-sulfamoylphenyl)-5-(trifluoromethyl)-1H-pyrazol-4-yl)isoxazole-4-carboxylate]	1000 to 10000	1000 to 10000	–	–
CNC(=O)c1c(-c2c(F)cccc2Cl)noc1-c1cnn(CC(C)C)c1C(F)(F)F [Example I-37, 3-(2-chloro-6-fluorophenyl)-5-(1-isobutyl-5-(trifluoromethyl)-1H-pyrazol-4-yl)-N-methylisoxazole-4-carboxamide]	100 to 1000	1000 to 10000	–	–
CNC(=O)c1c(-c2c(F)cccc2Cl)noc1-c1cnn(-c2ccccc2OC)c1C(F)(F)F [Example I-60, 3-(2-chloro-6-fluorophenyl)-5-(1-(2-methoxyphenyl)-5-(trifluoromethyl)-1H-pyrazol-4-yl)-N-methylisoxazole-4-carboxamide]	1000 to 10000	1000 to 10000	–	–
CCOC(=O)c1c(-c2ccc(OC)cc2)noc1-c1cnn(-c2cccc(F)c2)c1C(F)(F)F [Example I-100, ethyl 5-(1-(3-fluorophenyl)-5-(trifluoromethyl)-1H-pyrazol-4-yl)-3-(4-methoxyphenyl)isoxazole-4-carboxylate]	1000 to 10000	1000 to 10000	–	–
CC(=O)Nc1cccc(-n2ncc(-c3onc(-c4c(F)cccc4Cl)c3-c3nnco3)c2C(F)(F)F)c1 [Example B-13, N-(3-(4-(3-(2-chloro-6-fluorophenyl)-4-(1,3,4-oxadiazol-2-yl)isoxazol-5-yl)-5-(trifluoromethyl)-1H-pyrazol-1-yl)phenyl)acetamide]	–	–	1000 to 10000	1000 to 10000
COC(=O)c1c(-c2c(F)cccc2Cl)noc1-c1cnn(-c2ccc([N+](=O)[O-])cc2)c1C(F)(F)F [Example I-69, methyl 3-(2-chloro-6-fluorophenyl)-5-(1-(4-nitrophenyl)-5-(trifluoromethyl)-1H-pyrazol-4-yl)isoxazole-4-carboxylate]	1000 to 10000	1000 to 10000	–	–
CCOC(=O)c1csc(-n2ncc(-c3onc(-c4c(F)cccc4Cl)c3C(=O)OC)c2C(F)(F)F)n1 [Example I-53, methyl 3-(2-chloro-6-fluorophenyl)-5-(1-(4-(ethoxycarbonyl)thiazol-2-yl)-5-(trifluoromethyl)-1H-pyrazol-4-yl)isoxazole-4-carboxylate]	1000 to 10000	1000 to 10000	–	–
CCOC(=O)c1c(-c2c(Cl)cncc2Cl)noc1-c1cnn(-c2cccc(F)c2)c1C(F)(F)F [IB-103, ethyl 3-(3,5-dichloropyridin-4-yl)-5-(1-(3-fluorophenyl)-5-(trifluoromethyl)-1H-pyrazol-4-yl)isoxazole-4-carboxylate]	1000 to 10000	1000 to 10000	–	–
CNC(=O)c1c(-c2c(F)cccc2Cl)noc1-c1cnn(-c2cccc(NC(C)=O)c2)c1C(F)(F)F [IB-91, 5-(1-(3-acetamidophenyl)-5-(trifluoromethyl)-1H-pyrazol-4-yl)-3-(2-chloro-6-fluorophenyl)-N-methylisoxazole-4-carboxamide]	1000 to 10000	–	–	–
CN(C)C(=O)c1c(-c2c(F)cccc2Cl)noc1-c1cnn(-c2ccccc2F)c1C(F)(F)F [Example I-20, 3-(2-chloro-6-fluorophenyl)-5-(1-(2-fluorophenyl)-5-(trifluoromethyl)-1H-pyrazol-4-yl)-N,N-dimethylisoxazole-4-carboxamide]	1000 to 10000	1000 to 10000	–	–
COC(=O)c1sccc1-n1ncc(-c2onc(-c3c(F)cccc3Cl)c2C(=O)OC)c1C(F)(F)F [Example I-14, methyl 3-(2-chloro-6-fluorophenyl)-5-(1-(2-(methoxycarbonyl)thiophen-3-yl)-5-(trifluoromethyl)-1H-pyrazol-4-yl)isoxazole-4-carboxylate]	10 to 100	100 to 1000	–	–
CNC(=O)c1c(-c2c(F)cccc2Cl)noc1-c1cnn(-c2ccncc2)c1C(F)(F)F [IB-58, 3-(2-chloro-6-fluorophenyl)-N-methyl-5-(1-(pyridin-4-yl)-5-(trifluoromethyl)-1H-pyrazol-4-yl)isoxazole-4-carboxamide]	1000 to 10000	1000 to 10000	–	–
COc1cc(OC)c(CNC(=O)c2c(-c3c(F)cccc3Cl)noc2-c2cnn(-c3ccccc3F)c2C(F)(F)F)c(OC)c1 [Example I-2, 3-(2-chloro-6-fluorophenyl)-5-(1-(2-fluorophenyl)-5-(trifluoromethyl)-1H-pyrazol-4-yl)-N-(2,4,6-trimethoxyben-zyl)isoxazole-4-carboxamide]	1000 to 10000	1000 to 10000	–	–
CNC(=O)c1c(-c2c(F)cccc2Cl)noc1-c1cnn(-c2ccccc2Cl)c1C(F)(F)F [IB-50, 3-(2-chloro-6-fluorophenyl)-5-(1-(2-chlorophenyl)-5-(trifluoromethyl)-1H-pyrazol-4-yl)-N-methylisoxazole-4-carboxamide]	1000 to 10000	–	–	–
CC(=O)Nc1cccc(-n2ncc(-c3onc(-c4c(F)cccc4Cl)c3-c3nnc(C)o3)c2C(F)(F)F)c1 [Example B-11, N-(3-(4-(3-(2-chloro-6-fluorophenyl)-4-(5-methyl-1,3,4-oxadiazol-2-yl)isoxazol-5-yl)-5-(trifluoromethyl)-1H-pyrazol-1-yl)phenyl)acetamide]	–	–	1000 to 10000	100 to 1000
Fc1cccc(-n2ncc(-c3onc(-c4c(F)cccc4Cl)c3C(=S)N3CCOCC3)c2C(F)(F)F)c1 [Example I-129, (3-(2-chloro-6-fluorophenyl)-5-(1-(3-fluorophenyl)-5-(trifluoromethyl)-1H-pyrazol-4-yl)isoxazol-4-yl)(morpholino)meth-anethione]	1000 to 10000	–	–	–
CCOC(=O)c1c(-c2ccc(Cl)cc2)noc1-c1cnn(-c2ccc(F)cc2)c1C(F)(F)F [Example I-78, ethyl 3-(4-chlorophenyl)-5-(1-(4-fluorophenyl)-5-(trifluoromethyl)-1H-pyrazol-4-yl)isoxazole-4-carboxylate]	1000 to 10000	–	–	–
CNC(=O)c1c(-c2ccccc2F)noc1-c1cnn(-c2cccc(F)c2)c1C(F)(F)F [Example I-93, 3-(2-fluorophenyl)-5-(1-(3-fluorophenyl)-5-(trifluoromethyl)-1H-pyrazol-4-yl)-N-methylisoxazole-4-carboxamide]	1000 to 10000	–	–	–
CNC(=O)c1c(-c2c(F)cccc2Cl)noc1-c1cnn(-c2ccc(OC(F)(F)F)cc2)c1C(F)(F)F [Example I-56, 3-(2-chloro-6-fluorophenyl)-N-methyl-5-(1-(4-(trifluoromethoxy)phenyl)-5-(trifluoromethyl)-1H-pyrazol-4-yl)isoxazole-4-carboxamide]	1000 to 10000	–	–	–
CNC(=O)c1c(-c2ccc(Cl)c(Cl)c2)noc1-c1cnn(-c2cccc(F)c2)c1C(F)(F)F [Example I-98, 3-(3,4-dichlorophenyl)-5-(1-(3-fluorophenyl)-5-(trifluoromethyl)-1H-pyrazol-4-yl)-N-methylisoxazole-4-carboxamide]	1000 to 10000	–	–	–
